We go through four compounds from ChEMBL document CHEMBL1201862, “PubChem BioAssay data set” (2004).

Molecules are shown by their SMILES.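 Five concentrations, 48 hours, 96-well plates. Here, GI50 denotes the concentration required for 50% inhibition of growth.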 Calls of active or inactive are those of the source. Cut-off read from the data, not from the text of the source: active = GI50 up to about 1.1 µM and inactive = higher.

Holding throughout (assay): NCI-60 cell line screen, 48 h
The subject of assay [1] is 786-0.
Assay [2] concerns HT-29.
For assay [3], the system named is OVCAR-5.
In assay [4] the test system is A498.
Assay [5] relates to OVCAR-3.
Assay [6] relates to CAKI-1.
Assay [7] deals with NCI-H460.
Assay [8] has as its system BT-549.
Assay [9] has as its system UACC-62.
The subject of assay [10] is ACHN.
For assay [11], the system named is DU-145.
For assay [12], the system named is RPMI-8226.
Assay [13] relates to OVCAR-4.
Assay [14] deals with HCC 2998.
Assay [15] deals with SR.
For assay [16], the system named is UACC-257.
Assay [17] has as its system MDA-N.
In assay [18] the test system is T47D.
In assay [19] the test system is PC-3.
For assay [20], the system named is NCI/ADR-RES.

As to `COc1cccc2[nH]c(-c3ccccn3)nc12`, the GI50 was > 100 µM (inactive) in assay [1]; > 100 µM (inactive) in assay [2]; > 100 µM (inactive) in [3]; > 100 µM (inactive) in assay [4]; 55.7 µM (inactive) in assay [5]; 77.6 µM (inactive) in assay [6]. For the same compound, the GI50 is 86.7 µM (inactive) in assay [7]; > 100 µM (inactive) in assay [8]; > 100 µM (inactive) in [9]; 56.2 µM (inactive) in [10]; > 100 µM (inactive) in [11]; 32.4 µM (inactive) in assay [12]. Further, the GI50 in assay [13], in assay [14], in [15], in assay [16], in assay [17] and in assay [18] was > 100 µM (inactive) throughout. The GI50 in assay [19] was > 100 µM (inactive); in assay [20], 14.3 µM (inactive).
`O=C(/C=C/c1ccccc1Br)c1ccccc1`: the GI50 in assay [1] was 2.07 µM (inactive); in assay [2], 3.03 µM (inactive); in assay [3] it was 16.1 µM (inactive); in [4], 3.39 µM (inactive); in [5], 10.4 µM (inactive); in assay [6] it was 2.96 µM (inactive). Also, the GI50 in assay [7] is 4.37 µM (inactive); in [8] it was 13.6 µM (inactive); in assay [9] it was 11.4 µM (inactive); in assay [10] it was 1.8 µM (inactive); in [11] it was 8.07 µM (inactive); in assay [12], 3.01 µM (inactive). The GI50 in [13] is 1.77 µM (inactive); in [14], 2.89 µM (inactive); in assay [15], 2.18 µM (inactive); in assay [16], 9.68 µM (inactive); in assay [17] it was 6.71 µM (inactive); in assay [18], 4.52 µM (inactive). Besides, the values for the GI50 in assay [19] and in assay [20] were 11.4 µM (inactive) and 6.08 µM (inactive), respectively.
For the compound `C=CC(C)(O)/C=C/C=C(\C)C(CC1OC1(C)C)OC(=O)/C(C)=C\C` (stereo not given), the GI50 in assay [1], in [2], in assay [3], in [4], in [5] and in assay [6] was > 100 µM (inactive) in each case. The GI50 in assay [7], in assay [8], in [9], in assay [10], in [11] and in assay [12] was > 100 µM (inactive) in each case. The GI50 in [13], in [14], in [15], in assay [16], in assay [17] and in assay [18] was > 100 µM (inactive) throughout. For the same compound, the GI50 in assay [19] and in [20] was > 100 µM (inactive) each time.
With `CO/N=C(\C)c1ccc(Nc2c3ccccc3nc3occc23)cc1`, the GI50 in assay [1] is 0.74 µM (active); in assay [2] it was 0.284 µM (active); in assay [3] it was 4.08 µM (inactive); in [4], 0.773 µM (active); in [5] it was 0.284 µM (active); in [6] it was 0.318 µM (active). For the same compound, the GI50 in [7] is 0.426 µM (active); in [8], 0.845 µM (active); in assay [9], 0.38 µM (active); in [10], 0.568 µM (active); in assay [11] it was 1.07 µM (active); in assay [12], 0.429 µM (active). Also, the GI50 in assay [13] is 0.902 µM (active); in [14], 0.322 µM (active); in [15] it was 0.0373 µM (active); in assay [16], 14.3 µM (inactive); in [17], 0.0855 µM (active); in assay [18], 0.522 µM (active). The GI50 in assay [19] is 0.527 µM (active); in [20] it was 0.181 µM (active).
